According to patent US20080058274A1, “Combination Therapy” (priority 2004, published 2008):
Where a name gives a salt, the structure may show the parent alone. Read-outs that look alike come from different tables or passages of the source.

Tests used:
[1] = Doxorubicin pharmacokinetics and biodistribution in tumor-bearing mice; assay type: in vivo, BALB/c mice
Experimental: Pharmacokinetics and biodistribution studies in tumor-bearing mice: Eight to 10-week-old BALB/c female mice, obtained through the Animal Breeding House of the Hebrew University (Jerusalem, Israel), were housed at Hadassah Medical Center at a specific pathogen free (SPF) facility with food and water ad libitum. Each mouse was injected with one inoculum of tumor cells (1×10^6 murine C-26 cells) subcutaneously into the left flank. 7 days later SSL formulations containing both DXN (0.16 mg/mouse) and C6Cer, (0.25 mg/mouse), Doxil (0.16 mg/mouse) and free DXN (0.16 mg/mouse) were injected i.v. At 1, 4, 24 and 48 hr after injection, the animals were anesthetized with 4% chloral hydrate (Fluka, USA), bled by eye inoculation, and plasma was separated from blood cells by 5 min centrifugation at 5,000 rpm. Various organs (liver, heart, lungs, kidneys) and tumor were removed. Each time period in each treated group consisted of 3 mice. Samples were frozen at −80° C. until assayed. Thereafter, plasma samples were diluted in 90% isopropanol containing 10% 0.75N HCl in order to dissolve all liposome's lipids and release the DXN to the solution, and concentration of DXN was determined according to a standard calibration curve of DXN (excitation at 485±10 mu and emission at 590±10 nm) from fluorescence intensity using Synergy HT plate reader in its fluorescence mode (Bio-Tek, Vermont, USA).
Doxorubicin pharmacokinetics and biodistribution studies in tumor-bearing mice: BALB/c female mice were injected with one inoculum of tumor cells (1×10^6 C-26 cells) subcutaneously into the left flank. Seven days later, liposomal formulations containing both DXN and C6Cer [HSPC:^2kPEG-DSPE:Chol:C6Cer (76:7.5:5:11.5)-DXN]; Doxil or Free DXN were injected i.v., and bled by eye inoculation, plasma was isolated and 50 μl was taken from plasma for further analysis. DXN levels were determined after “extraction” of plasma with acidic isopropanol as described in Methods.

C-26 colon carcinomas = test: In vivo antitumor efficacy, mice inoculated i.p. with C-26 colon carcinoma; set-up: species or system BALB/c mice; details: i.v. treatment, DXN 8 mg/kg
Experimental: In vivo evaluation of antitumor efficacy of Liposomal DXN: All the experimental procedures which make use of animals (mice) were done in accordance with the standards required by the Institutional Animal Care and Use Committee of the Hebrew University and Hadassah Medical Organization and approved by the Committee.
To test therapeutic efficacy, female BALB/c mice (in the weight range of 16-20 g) were injected i.p. with 1*10^6 C-26 colon carcinomas. The viability of these cells was >90% by trypan blue exclusion. Therapeutic efficacy of i.v. injected SSL (DXN-C6Cer-SSL) containing both DXN in intraliposome aqueous phase (DXN/PL ratio of 0.2) and 11.5 mole % of C6Cer in comparison to Doxil (alone) and free DXN was studied. In all 3 treatments DXN dose was 0.16 mg/mouse (8 mg/kg) and dose of C6Cer injected into mice treated with DXN-C6Cer-SSL was 0.25 mg.mouse (12.5 mg/kg). Intravenous treatment began at day 4 after tumor cell inoculation and was repeated three times at 5-days intervals. The median survival and percentage increase in life span of treated (T) over control (C) animals (Tx100/C)-100 were calculated.
Statistical analysis: Median survival times and the statistical significance of differences in survival curves were calculated by means of the log-rank test using Prism Software (GraphPad, San Diego, Calif.). Differences were considered significant at P<0.05.

[2] = test system: doxorubicin-resistant human breast carcinoma M-109 cell line; test: Cytotoxicity, methylene blue (MB) staining assay; assay type: cell-based; details: M-109 doxorubicin-resistant cells
Experimental: Cytotoxicity studies: The cytotoxicity of C6Cer-DXN-SSL against doxorubicin-resistant human breast carcinoma M-109 cell line was tested by the methylene blue (MB) staining assay [Gorodetsky, R. et al. Int. J. Cancer. 75:635-642 (1998)]. A known number of exponentially growing cells in 200 μL of medium were plated in 96-microwell, flat-bottomed plates. For each of the variants tested, 4 wells were used. Following 24 hr of incubation in culture, different concentrations of drugs or formulations were added to each well containing untreated cells.
Cells were exposed to drugs for 96 hr. […] The MB bound to the fixed cells was extracted by incubation at 37° C. with 200 μL of 0.1 N HCl for 1 h, and the net optical density of the dye in each well was determined by a plate spectrophotometer (Labsystems Multyskan Bichromatic, Finland) at 620 nm.
Statistical analysis: Median survival times and the statistical significance of differences in survival curves were calculated by means of the log-rank test using Prism Software (GraphPad, San Diego, Calif.). […] For assessment of synergy, the combination index (CI) was determined by median effect analysis [Chow T C, Talalay P. Quantitative analysis of dose-effect relationships: the combined effects of multiple drugs or enzyme inhibitors. […]

## COc1cccc2c1C(=O)c1c(O)c3c(c(O)c1C2=O)C[C@@](O)(C(=O)CO)C[C@@H]3O[C@H]1C[C@H](N)[C@H](O)[C@H](C)O1 [free DXN, 8S,10S)-10-[(3-amino-2,3,6-trideoxy-a-L-lyxo-hexopyranosyl)oxy]-8-glycolyl-7,8,9,10-tetrahydro-6,8,11-trihydroxy-1-methoxy-5,12-naphthacenedione hydrochloride]
[1]; 1 hr post-injection, i.v. 0.16 mg DXN/mouse, FIG. 4A
  DXN remaining in plasma: 3%
[1]; 4 hr post-treatment, i.v., FIG. 4B
  DXN level in heart tissue: 5.7%
[1]; 24 hr post-injection (maximum), i.v., s.c. C-26 tumor, FIG. 4B
  DXN level in tumor tissue: 1%
[1]; plasma, 48 hr post-injection, i.v. 0.16 mg DXN/mouse, FIG. 4A
  DXN remaining in circulation: below detection
C-26 colon carcinomas; FIG. 3
  survival 80 days after treatment initialization: 0%
C-26 colon carcinomas; untreated 16 day
  median survival: 35 days
[2]; M109, agent given alone, 96 hr exposure, read-out: IC50
  IC50: 2200 nM
[2]; M109, combined with liposomal C6Cer at its IC10, 96 hr, read-out: IC50 of DXN in the presence of IC10 concentration of liposomal C6Cer
  IC50: 900 nM
